Results from patent publication US20250170130A1, “MODULATORS OF MYC FAMILY PROTO-ONCOGENE PROTEIN” (Nalo Therapeutics, priority 2022, published 2025).

Experiments:
MycN = molecular target: T1, MycN (Homo sapiens, UniProt P04198); experiment: Degradation of MycN protein in SK-N-BE(2) cells, JESS/Western blot of lysates; assay type: cell-based; conditions: SKNBE2 cells, 24 h; for Dmax at 1 µM / Dmax at 3 µM / Dmax at 6 µM / Dmax at 0.5 µM: SKNBE2, 24 h; for Dmax at 1 µM: read-out: % Degradation of MycN (SKNBE2) 24 h, 1 μM; for Dmax at 3 µM: read-out: % Degradation of MycN (SKNBE2) 24 h, 3 μM; for Dmax at 6 µM: read-out: % Degradation of MycN (SKNBE2) 24 h, 6 μM; for Dmax at 0.5 µM: read-out: % Degradation of MycN (SKNBE2) 24 h, 0.5 μM
T1 construct: endogenous in cells; host or cells: SK-N-BE(2)
T1 sequence (P04198 1-464): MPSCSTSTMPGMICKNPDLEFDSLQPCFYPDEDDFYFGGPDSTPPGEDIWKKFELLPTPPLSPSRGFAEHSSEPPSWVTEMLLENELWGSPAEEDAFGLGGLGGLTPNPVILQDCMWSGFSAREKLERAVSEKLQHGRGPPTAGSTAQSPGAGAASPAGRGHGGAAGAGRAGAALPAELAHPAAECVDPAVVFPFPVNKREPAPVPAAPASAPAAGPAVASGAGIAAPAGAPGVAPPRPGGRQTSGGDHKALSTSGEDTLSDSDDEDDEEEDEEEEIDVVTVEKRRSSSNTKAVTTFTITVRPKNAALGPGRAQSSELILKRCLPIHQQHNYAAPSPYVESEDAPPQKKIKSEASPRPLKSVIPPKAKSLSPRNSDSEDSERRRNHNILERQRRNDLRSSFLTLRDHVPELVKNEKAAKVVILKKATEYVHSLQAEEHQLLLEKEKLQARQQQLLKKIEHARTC
Experimental: (§1) For L363 cells (suspension), 1E6 cells were plated into each well of a 6 well plate. For SK-N-BE(2) cells (adherent), 5E5 cells were plated into each well of a 6 well dish. Cells were cultured for 24 hrs then treated with exemplary compounds at 0.1, 0.5, 1.0, 3.0 and 6.0 mM final assay concentrations plus DMSO control. All compounds were diluted to 10 mM in DMSO. Cells were treated with the compound for 24 hrs, then for both cell types, media containing cells were removed from wells into a 15 ml centrifuge tube, and remaining adherent SK-N-BE(2) cells were also scraped from the wells into the appropriate tubes. Tubes were centrifuged, cells were washed with PBS then re-centrifuged to pellet cells. A RIPA buffer cocktail was added to the cells on ice for 5 mins. Cell lysates were clarified by centrifugation and stored at −80 degrees until required. BCA assay was performed on each lysate to determine the protein concentration.
(§2) Once an appropriate lysate concentration and antibody concentration was determined, samples were screened in the JESS technology (Protein Simple, San Jose, CA—https://www.proteinsimple.com/jess.html).
(§3) Target protein antibodies (n-myc and c-myc) were detected in the chemi-luminescence channel and loading controls (tubulin and GAPDH) were detected using a Near Infra Red (NIR) labeled secondary antibody.
For SK-N-EB2 adherent cells, 5E5 cells in 1.9 mls media were plated into 6 well dishes and incubated for 24 hrs. Exemplary compounds were added (100 ul, 1 in 20 dilution in media) to each well (final assay concentration 6, 3, 1 and […]) together with DMSO control wells and incubated for 24 hrs. Cells were scrapped off the plate, centrifuged, washed with PBS, centrifuged, then a RIPA buffer cocktail added to the cells (100 ul), centrifuged and stored at −80 for later analysis. For L363 suspension cells, 1E6 cells were plated into 24 well dishes (950 ul media) and incubated for 24 hrs. Exemplary compounds were added (50 ul, 1 in 20 dilution in media) to each well (final assay concentration 6, 3, 1 and […]) together with DMSO control wells and incubated for 24 hrs. Cells were aspirated into tubes, centrifuged, washed with PBS, centrifuged, then a RIPA buffer cocktail added to the cells (100 ul), centrifuged and stored at −80 for later analysis.
(§4) For Western blot, a BCA (total protein) assay was run on all samples, these were then run in batches of 5 compounds plus control (DMSO) on each Western blot run—n-myc and c-myc were run in separate experiments in the chemiluminescence channel. Both tubulin and GAPDH were run as loading controls in all lanes in the near infra red channel.

MycC = molecular target: T2, MycC (Homo sapiens, UniProt P01106); experiment: Degradation of MycC protein in L363 cells, JESS/Western blot of lysates; assay type: cell-based; conditions: L-363 cells, 24 h; for Dmax at 1 µM / Dmax at 0.5 µM / Dmax at 3 µM / Dmax at 6 µM: L-363, 24 h; for Dmax at 1 µM: read-out: % Degradation of MycC (L-363) 24 h, 1 μM; for Dmax at 0.5 µM: read-out: % Degradation of MycC (L-363) 24 h, 0.5 μM; for Dmax at 3 µM: read-out: % Degradation of MycC (L-363) 24 h, 3 μM; for Dmax at 6 µM: read-out: % Degradation of MycC (L-363) 24 h, 6 μM
T2 construct: endogenous in cells; host or cells: L363
T2 sequence (P01106 whole entry): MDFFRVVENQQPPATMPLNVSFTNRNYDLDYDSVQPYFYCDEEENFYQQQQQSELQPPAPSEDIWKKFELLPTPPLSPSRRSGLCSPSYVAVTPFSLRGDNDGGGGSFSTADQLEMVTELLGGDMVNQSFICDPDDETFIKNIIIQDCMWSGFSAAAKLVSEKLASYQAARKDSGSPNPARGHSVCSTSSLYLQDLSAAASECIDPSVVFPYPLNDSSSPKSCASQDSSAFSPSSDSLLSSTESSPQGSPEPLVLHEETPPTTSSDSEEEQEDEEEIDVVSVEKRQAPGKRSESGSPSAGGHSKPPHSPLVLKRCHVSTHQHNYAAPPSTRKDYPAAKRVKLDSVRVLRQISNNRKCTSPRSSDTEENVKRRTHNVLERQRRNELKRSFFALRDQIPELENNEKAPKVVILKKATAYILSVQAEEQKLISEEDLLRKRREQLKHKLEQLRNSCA
Experimental: as §1, with “Cells were cultured for 24 hrs then treated with exemplary compounds at 0.1, 0.5, 1.0, 3.0 and 6.0 mM final assay concentrations plus DMSO control.” left out
as §2, §3
For SK-N-EB2 adherent cells, 5E5 cells in 1.9 mls media were plated into 6 well dishes and incubated for 24 hrs. […] Cells were scrapped off the plate, centrifuged, washed with PBS, centrifuged, then a RIPA buffer cocktail added to the cells (100 ul), centrifuged and stored at −80 for later analysis. For L363 suspension cells, 1E6 cells were plated into […] (950 ul media) and incubated for 24 hrs. […] Cells were aspirated into tubes, centrifuged, washed with PBS, centrifuged, then a RIPA buffer cocktail added to the cells (100 ul), centrifuged and stored at −80 for later analysis.
as §4

Compound | Dmax at 1 µM (MycN) [%] | Dmax at 3 µM (MycN) [%] | Dmax at 6 µM (MycN) [%] | Dmax at 1 µM (MycC) [%] | Dmax at 0.5 µM (MycN) [%] | Dmax at 0.5 µM (MycC; 0.5 μM) [%] | Dmax at 3 µM (MycC) [%] | Dmax at 6 µM (MycC; 6 μM) [%] | % Degradation of MycN (SKNBE2) 24 h, 6 μM (MycN) | % Degradation of MycC (L-363) 24 h, 0.5 μM (MycC; 0.5 μM) | % Degradation of MycC (L-363) 24 h, 6 μM (MycC; 6 μM)
c1cc(Nc2cc(C3CC3)[nH]n2)nc(N2CCC(C3CNC3)C2)n1 (racemic) [Compound 39, (±)-2-[3-(azetidin-3-yl)pyrrolidin-1-yl]-N-(5-cyclopropyl-1H-pyrazol-3-yl)pyrimidin-4-amine] | < 20 | 20 to 49 | 20 to 49 | 20 to 49 |  |  |  |  |  |  | 
c1cc(Nc2cc(C3CC3)[nH]n2)nc(N2C[C@H]3CNC[C@@H]3C2)n1 (racemic) [Compound 50, N-(5-Cyclopropyl-1H-pyrazol-3-yl)-2-[rac-(3aR,6aR)-2,3,3a,4,6,6a-hexahydro-1H-pyrrolo[3,4-c]pyrrol-5-yl]pyrimidin-4-amine] | 20 to 49 | 50 to 79 | 80 to 100 | < 20 | 20 to 49 | 20 to 49 | 20 to 49 | 50 to 79 |  |  | 
CC(N)C1CCCN(c2nccc(Nc3cc(C4CC4)[nH]n3)n2)C1 (single isomer, unassigned) [Compound 159, 2-[3-(1-Aminoethyl)-1-piperidyl]-N-(5-cyclopropyl-1H-pyrazol-3-yl)pyrimidin-4-amine] |  |  | 80 to 100 |  |  | 20 to 49 |  | 80 to 100 | **** (degradation 80-100%) | ** (degradation 20-49%) | **** (degradation 80-100%)
CNC(C)C1CCCN(c2nccc(Nc3cc(C4CC4)[nH]n3)n2)C1 (single isomer, unassigned) [Compound 162, N-(5-Cyclopropyl-1H-pyrazol-3-yl)-2-[3-[1-(methylamino)ethyl]-1-piperidyl]pyrimidin-4-amine] | 20 to 49 |  | 80 to 100 | 20 to 49 | 20 to 49 | 20 to 49 | 20 to 49 |  | **** (degradation 80-100%) |  | 
CN(C)C[C@H]1CCN(c2nccc(Nc3cc(C4CC4)[nH]n3)n2)C1 (stereo in doubt) [Compound 32, N-(5-cyclopropyl-1H-pyrazol-3-yl)-2-[rac-(3R)-3-[(dimethylamino)methyl]pyrrolidin-1-yl]pyrimidin-4-amine] | 20 to 49 | 50 to 79 | 50 to 79 | < 20 | 20 to 49 |  |  | < 20 |  |  | 
CN(C)C[C@@H]1CCN(c2nccc(Nc3cc(C4CC4)[nH]n3)n2)C1 (stereo in doubt) [Compound 33, N-(5-Cyclopropyl-1H-pyrazol-3-yl)-2-[rac-(3S)-3-[(dimethylamino)methyl]pyrrolidin-1-yl]pyrimidin-4-amine] | 20 to 49 | 50 to 79 | 50 to 79 |  | 20 to 49 |  |  |  |  |  | 
CNC1CC2(C1)CN(c1nccc(Nc3cc(C4CC4)[nH]n3)n1)C2 [Compound 1, 2-(4-((5-cyclopropyl-1H-pyrazol-3-yl)amino)pyrimidin-2-yl)-N-methyl-2-azaspiro[3.3]heptan-6-amine] |  | < 20 | 50 to 79 |  |  |  |  | 20 to 49 |  |  | 
c1cc(Nc2cc(C3CC3)[nH]n2)nc(N2CCC3(CNC3)C2)n1 [Compound 2, N-(5-cyclopropyl-1H-pyrazol-3-yl)-2-(2,6-diazaspiro[3.4]octan-6-yl)pyrimidin-4-amine] | < 20 | < 20 | 50 to 79 | 20 to 49 | < 20 | 20 to 49 | 20 to 49 | 20 to 49 |  |  | 
CN1CC2(CCN(c3nccc(Nc4cc(C5CC5)[nH]n4)n3)C2)C1 [Compound 3, N-(5-cyclopropyl-1H-pyrazol-3-yl)-2-(2-methyl-2,6-diazaspiro[3.4]octan-6-yl)pyrimidin-4-amine] | < 20 | < 20 | 50 to 79 | 20 to 49 | < 20 | < 20 |  | 80 to 100 |  |  | 
CNCCCNc1nccc(Nc2cc(C3CC3)[nH]n2)n1 [Compound 34, N^4-(5-cyclopropyl-1H-pyrazol-3-yl)-N^2-[3-(methylamino)propyl]pyrimidine-2,4-diamine] |  |  | < 20 |  |  |  |  |  |  |  | 
CN1CC(C2CN(c3nccc(Nc4cc(C5CC5)[nH]n4)n3)C2)C1 [Compound 46, N-(5-Cyclopropyl-1H-pyrazol-3-yl)-2-[3-(1-methylazetidin-3-yl)azetidin-1-yl]pyrimidin-4-amine] |  |  | < 20 |  |  |  |  |  |  |  | 
CN1C[C@@H]2CN(c3nccc(Nc4cc(C5CC5)[nH]n4)n3)C[C@@H]21 [Compound 52, N-(5-cyclopropyl-1H-pyrazol-3-yl)-2-[(1R,5R)-6-methyl-3,6-diazabicyclo[3.2.0]heptan-3-yl]pyrimidin-4-amine] |  |  | < 20 |  |  |  |  |  |  |  | 
OC1CN(CC23CC(C2)N(c2nccc(Nc4cc(C5CCCC5)[nH]n4)n2)C3)C1 [Compound 70] | < 20 |  | 20 to 49 |  |  |  |  |  |  |  | 
CS(=O)(=O)CCCNCC12CC(C1)N(c1nccc(Nc3cc(C4CCCC4)[nH]n3)n1)C2 [Compound 74, N-(5-Cyclopentyl-1H-pyrazol-3-yl)-2-[4-[(3-methylsulfonylpropylamino)methyl]-2-azabicyclo[2.1.1]hexan-2-yl]pyrimidin-4-amine] | 20 to 49 | 50 to 79 | 80 to 100 |  | 20 to 49 |  |  |  |  |  | 
CNC[C@H]1CN(c2nccc(Nc3cc(C4CCCC4)[nH]n3)n2)CCO1 [Compound 190, N-(5-Cyclopentyl-1H-pyrazol-3-yl)-2-[(2S)-2-(methylaminomethyl)morpholin-4-yl]pyrimidin-4-amine] | 20 to 49 | 50 to 79 | 50 to 79 |  | 20 to 49 |  |  |  |  |  | 
